Values quoted from earlier work, collected in patent publication EP3067353A1, “A PROCESS FOR THE PREPARATION OF SOLIFENACIN SALTS AND THEIR INCLUSION INTO PHARMACEUTICAL DOSAGE FORMS” (KRKA, D.D., Novo Mesto, priority 2008, dated 2010).
Structures can show the parent of a compound that is named as a salt.

Key:
[1] = relative humidity of 70% (room temperature)

Which “impurities during long term storage” value does the source give for `O=C(O[C@H]1CN2CCC1CC2)N1CCc2ccccc2[C@@H]1c1ccccc1` [hydrochloride] here?
The value was “increase of impurities during long term storage”.

And the hygroscopicity [1]?
Its hygroscopicity is “so hydroscopic as to deliquence”.
